Literature values as cited in patent US8901128B2, “Pharmaceutical compositions of ranolazine” (Lupin Limited, priority 2009, dated 2014).

Key:
[1] = test system: humans suffering from angina; conditions: administered as an IR formulation; 120 mg three times daily
[2] = low pH that occurs in the stomach
[3] = in vivo

COc1ccccc1OCC(O)CN1CCN(CC(=O)Nc2c(C)cccc2C)CC1 (racemic) [ranolazine, (±)-N-(2,6-dimethylphenyl)-4-[2-hydroxy-3-(2-methoxyphenoxy)-propyl]-1-piperazineacetamide]
antianginal and anti-ischemic efficacy [1]: ineffective
solubility [2]: relatively high
plasma half-life [3]: relatively short
